From a compilation of properties of binary mixtures (doi:10.1016/j.jct.2022.106923)

Assay: xn = mol fraction of the nth substance listed
Conditions: 101.3 kPa

CO + CC[n+]1ccn(C)c1C.F[B-](F)(F)F
x2 = 0
Conditions	viscosity [mPa·s]
293.15 K	0.57
298.15 K	0.532
303.15 K	0.498
313.15 K	0.439
318.15 K	0.414
323.15 K	0.39
328.15 K	0.37
333.15 K	0.351

CC[n+]1ccn(C)c1C.F[B-](F)(F)F + CO
viscosity [mPa·s]
Conditions	293.15 K	298.15 K	303.15 K	308.15 K	313.15 K	318.15 K	323.15 K	328.15 K	333.15 K
x1 = 0.0165	0.863	0.803	0.75	0.701	0.658	0.619	0.583	0.55	0.522
x1 = 0.0364	0.999	0.925	–	0.801	0.752	0.706	–	0.626	0.59
x1 = 0.0608	1.27	1.177	1.096	–	0.953	0.893	0.839	0.79	0.749
x1 = 0.0915	1.45	–	1.26	–	1.086	1.012	–	–	0.816
x1 = 0.1313	–	1.77	–	–	1.4	1.3	–	–	–
x1 = 0.1848	2.75	2.5	2.28	2.09	–	1.77	1.63	1.52	–
x1 = 0.2607	4.43	–	3.6	3.28	2.99	2.74	2.54	2.34	2.17
x1 = 0.3768	9.29	8.18	7.17	6.85	6.15	–	5.01	–	4.13
